# Laboratory results from patent publication US12410179B2, “Modulators of TNF alpha activity and uses thereof” (RayThera, Inc., priority 2023, dated 2025).
# Biological target: TNFα (Homo sapiens, UniProt P01375)
# Test: HEK-Blue hTNFα reporter assay
# Assay type: cell-based
# Design: purchased R&D biosystem (R&D Systems) 210-TA-020/CF
# Details: HEK-Blue hTNFα reporter cells, SEAP readout; read-out: IC50 Range
# How it was run: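 Compounds preincubated 1 h at 37 °C with recombinant hTNFα ([…]), then added to HEK293 NF-κB-SEAP reporter cells, 10000 cells/well, 24 h at 37 °C. SEAP read by QUANTI-Blue at OD620; % inhibition versus stimulated and unstimulated controls, IC50 by 4-parameter fit.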
# Chain of TNFα (P01375 77-233 limits assumed): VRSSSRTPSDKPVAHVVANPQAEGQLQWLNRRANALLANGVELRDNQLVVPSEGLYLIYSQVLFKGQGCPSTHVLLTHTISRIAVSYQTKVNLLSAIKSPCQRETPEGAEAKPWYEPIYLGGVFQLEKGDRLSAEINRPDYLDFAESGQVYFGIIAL
row,SMILES,IC50 [µM]
1,Cc1nc(C2(N)CCC2)ncc1-c1ccn2nc3c(c2c1)[C@@H]1C[C@H]3NC(=O)c2cccc(OC(F)F)c21 [Example 234],< 0.025
2,CN1C(=O)c2cccc(OC(F)F)c2[C@H]2C[C@@H]1c1nn3cnc(-c4cnc([C@]5(O)C[C@@](C)(O)C5)nc4)cc3c12 [Example 32],< 0.025
3,[2H]C([2H])([2H])N1C(=O)c2cccc(OC(F)F)c2[C@H]2C[C@@H]1c1nn3ccc(-c4cnc([C@]5(C#N)C[C@](C)(N)C5)nc4)cc3c12 [Example 280],< 0.025
4,O=C1N[C@@H]2C[C@H](c3c(OC(F)F)cccc31)c1c2nn2ccc(-c3cnc(C4(O)CC(F)(F)C4)nc3)cc12 [Example 150],< 0.025
5,[2H]C([2H])([2H])N1C(=O)c2cccc(OC(F)F)c2[C@H]2C[C@@H]1c1nn3cnc(-c4cnc(C(C)(C)N)nc4)cc3c12 [Example 298],< 0.025
6,CN1C(=O)c2cccc(OC(F)F)c2[C@H]2C[C@@H]1c1nn3ccc(-c4cnc(C5(O)CCOCC5)nc4)cc3c12 [Example 65],< 0.025
7,[2H]C([2H])([2H])N1C(=O)c2cccc(OC(F)F)c2[C@H]2C[C@@H]1c1nn3cc(F)c(-c4cnc([C@]5(N)C[C@@](C)(CO)C5)nc4)nc3c12 [Example 274],< 0.025
8,O=C1N[C@@H]2C[C@H](c3c(OC(F)F)cccc31)c1c2nn2ccc(-c3ccnc(OC4COC4)c3)cc12 [Example 202],< 0.025
9,CN1C(=O)c2cccc(OC(F)F)c2[C@H]2C[C@@H]1c1nn3ccc(-c4cnc([C@@H](O)CN5CCC5)nc4)cc3c12 [Example 171],0.025 to 0.1
10,[2H]C([2H])([2H])N1C(=O)c2cccc(OC(F)F)c2[C@H]2C[C@@H]1c1nn3ccc(-c4cnc(C(C)(C)N)nc4)cc3c12 [Example 254],< 0.025
11,[2H]C([2H])([2H])N1C(=O)c2cccc(OC(F)F)c2[C@H]2C[C@@H]1c1nn3ccc(-c4cnc(C5(N)CC5)nc4)nc3c12 [Example 238],< 0.025
12,CN1C(=O)c2cccc(OC(F)F)c2[C@H]2C[C@@H]1c1nn3ccc(-c4ccc(P(C)(C)=O)cc4)cc3c12 [Example 123],< 0.025
13,[2H]C([2H])([2H])N1C(=O)c2cccc(OC(F)F)c2[C@H]2C[C@@H]1c1nn3cnc(-c4cnc([C@]5(O)C[C@@](C)(N)C5)nc4)cc3c12 [Example 261],0.025 to 0.1
14,C[C@@](O)(c1ncc(-c2ccn3nc4c(c3c2)[C@@H]2C[C@H]4NC(=O)c3cccc(OC(F)F)c32)cn1)C(F)F [Example 151],< 0.025
15,CN1C(=O)c2cccc(OC(F)F)c2[C@H]2C[C@@H]1c1nn3cc(F)c(-c4cnc([C@]5(O)C[C@@H](O)C5)nc4)cc3c12 [Example 125],< 0.025
16,O=C1N[C@@H]2C[C@H](c3c(OC(F)F)cccc31)c1c2nn2ccc(C3=CCN(C(=O)O[C@H]4C[C@@H](O)C4)CC3)cc12 [Example 283],< 0.025
17,[2H]C([2H])([2H])N1C(=O)c2cccc(OC(F)F)c2[C@H]2C[C@@H]1c1nn3ccc(-c4ccc(P(C)(C)=O)nc4)cc3c12 [Example 31],< 0.025
18,[2H]C([2H])([2H])N1C(=O)c2cccc(OC(F)F)c2[C@H]2C[C@@H]1c1nn3ccc(-c4cnc(C5(N)COC5)cn4)cc3c12 [Example 247],< 0.025
19,CN1C(=O)c2cccc(OC(F)F)c2[C@H]2C[C@@H]1c1nn3ccc(-c4cnc([C@](O)(CC#N)C(F)F)nc4)cc3c12 [Example 78],< 0.025
20,"Cn1ccc(N2CC=C(c3ccn4nc5c(c4c3)[C@@H]3C[C@H]5NC(=O)c4cccc(OC(F)F)c43)CC2)n1 [Example 315, (7R,14S)-1-(difluoromethoxy)-12-(1-(1-methyl-1H-pyrazol-3-yl)-1,2,3,6-tetrahydropyridin-4-yl)-6,7-dihydro-7,14-methanobenzo[c]pyrido[1′,2′:1,5]pyrazolo[4,3-f]azocin-5 (14H)-one]",0.025 to 0.1
21,CN1C(=O)c2cccc(OC(F)F)c2[C@H]2C[C@@H]1c1nn3ccc(-c4cnc([C@]5(N)C[C@@](C)(O)C5)c(F)c4)cc3c12 [Example 40],< 0.025
22,CN1C(=O)c2cccc(OC(F)F)c2[C@H]2C[C@@H]1c1nn3ccc(-c4ncc([C@]5(O)C[C@@](C)(O)C5)cn4)cc3c12 [Example 142],< 0.025

# The remaining lines, values ahead:
row,IC50 [µM],SMILES
1,< 0.025,[2H]C([2H])([2H])N1C(=O)c2cccc(OC(F)F)c2[C@H]2C[C@@H]1c1nn3ccc(-c4cnc([C@]5(C#N)C[C@](C)(N)C5)c(F)c4)cc3c12 [Example 293]
2,< 0.025,"CN1C(=O)c2cccc(OC(F)F)c2[C@H]2C[C@@H]1c1nn3ccc(-c4cnc([C@]5(N)C[C@@](C)(CO)C5)nc4)nc3c12 [Example 10, (7R,14S)-12-(2-((1s,3R)-1-amino-3-(hydroxymethyl)-3-methylcyclobutyl)pyrimidin-5-yl)-1-(difluoromethoxy)-6-methyl-6,7-dihydro-7,14-methanobenzo[c]pyrimido[1′,2′:1,5]pyrazolo[4,3-f]azocin-5 (14H)-one]"
3,< 0.025,CN1C(=O)c2cccc(OC(F)F)c2[C@H]2C[C@@H]1c1nn3ccc(-c4cnc([C@]5(O)C[C@@](C)(C(N)=O)C5)nc4)cc3c12 [Example 160]
4,< 0.025,C[C@H](O)[C@@H](O)c1ncc(-c2ccn3nc4c(c3c2)[C@@H]2C[C@H]4N(C)C(=O)c3cccc(OC(F)F)c32)cn1 [Example 118]
5,< 0.025,CN1C(=O)c2cccc(OC(F)F)c2[C@H]2C[C@@H]1c1nn3cnc(-c4cnc([C@]5(O)C[C@@](C)(C#N)C5)nc4)cc3c12 [Example 45]
6,< 0.025,C[C@H](O)[C@H](O)c1ncc(-c2ccn3nc4c(c3c2)[C@@H]2C[C@H]4N(C)C(=O)c3cccc(OC(F)F)c32)cn1 [Example 135]
7,< 0.025,C[C@]1(C#N)C[C@](N)(c2ccc(-c3ccn4nc5c(c4c3)[C@@H]3C[C@H]5NC(=O)c4cccc(OC(F)F)c43)cn2)C1 [Example 212]
8,0.025 to 0.1,"CN1C(=O)c2ccc(OC(F)F)nc2[C@H]2C[C@@H]1c1nn3ccc(-c4cnc([C@]5(O)C[C@@](C)(O)C5)nc4)cc3c12 [Example 321, 2-(difluoromethoxy)-12-(2-((1s, 3s)-1,3-dihydroxy-3-methylcyclobutyl)pyrimidin-5-yl)-6-methyl-6,7-dihydro-7,14-methanopyrido[3,2-c]pyrido[1′,2′:1,5]pyrazolo[4,3-f]azocin-5 (14H)-one]"
9,< 0.025,NC1(c2ncc(-c3ccn4nc5c(c4c3)[C@@H]3C[C@H]5NC(=O)c4cccc(OC(F)F)c43)cn2)CCC1 [Example 184]
10,< 0.025,[2H]C([2H])([2H])N1C(=O)c2cccc(OC(F)F)c2[C@H]2C[C@@H]1c1nn3ccc(-c4cnc(C5(N)CCC5)cn4)cc3c12 [Example 207]

# Same assay, conditions: HEK-Blue hTNFα reporter cells; read-out: TNFα reporter, Emax
row,SMILES,Emax [%]
1,"CN1C(=O)c2cccc(OC(F)F)c2[C@H]2C[C@@H]1c1nc3ccc(-c4cnc([C@]5(N)C[C@@](C)(CO)C5)nc4)cc3n12 [Comp. Ex #7, reference compound]",92
2,CN1C(=O)c2cccc(OC(F)F)c2[C@H]2C[C@@H]1c1nn3ccc(-c4cnc(C5(O)CCOCC5)nc4)cc3c12 [Example 65],90
3,"CN1C(=O)c2cccc(OC(F)F)c2[C@H]2C[C@@H]1c1nc3ccc(-c4cnc([C@]5(N)C[C@@](C)(C#N)C5)nc4)cc3n12 [Comp. Ex #5, reference compound]",83

# Results, then the compound that gave them:
row,Emax [%],SMILES
1,93,"CN1C(=O)c2cccc(OC(F)F)c2[C@H]2C[C@@H]1c1nn3ccc(-c4cnc([C@]5(N)C[C@@](C)(CO)C5)nc4)nc3c12 [Example 10, (7R,14S)-12-(2-((1s,3R)-1-amino-3-(hydroxymethyl)-3-methylcyclobutyl)pyrimidin-5-yl)-1-(difluoromethoxy)-6-methyl-6,7-dihydro-7,14-methanobenzo[c]pyrimido[1′,2′:1,5]pyrazolo[4,3-f]azocin-5 (14H)-one]"
2,82,"CN1C(=O)c2cccc(OC(F)F)c2[C@H]2C[C@@H]1c1nc3ccc(-c4cnc([C@]5(O)C[C@@](C)(O)C5)nc4)cc3n12 [Comp. Ex #6, reference compound]"

# Same assay, conditions: HEK-Blue hTNFα reporter cells; read-out: TNFα reporter, IC50
row,SMILES,IC50 [µM]
1,"CN1C(=O)c2cccc(OC(F)F)c2[C@H]2C[C@@H]1c1nc3ccc(-c4cnc([C@]5(N)C[C@@](C)(CO)C5)nc4)cc3n12 [Comp. Ex #7, reference compound]",0.0042
2,CN1C(=O)c2cccc(OC(F)F)c2[C@H]2C[C@@H]1c1nn3ccc(-c4cnc(C5(O)CCOCC5)nc4)cc3c12 [Example 65],0.0031
3,"CN1C(=O)c2cccc(OC(F)F)c2[C@H]2C[C@@H]1c1nc3ccc(-c4cnc([C@]5(N)C[C@@](C)(C#N)C5)nc4)cc3n12 [Comp. Ex #5, reference compound]",0.0161

# Results, then the compound that gave them:
row,IC50 [µM],SMILES
1,0.0127,"CN1C(=O)c2cccc(OC(F)F)c2[C@H]2C[C@@H]1c1nn3ccc(-c4cnc([C@]5(N)C[C@@](C)(CO)C5)nc4)nc3c12 [Example 10, (7R,14S)-12-(2-((1s,3R)-1-amino-3-(hydroxymethyl)-3-methylcyclobutyl)pyrimidin-5-yl)-1-(difluoromethoxy)-6-methyl-6,7-dihydro-7,14-methanobenzo[c]pyrimido[1′,2′:1,5]pyrazolo[4,3-f]azocin-5 (14H)-one]"
2,0.0052,"CN1C(=O)c2cccc(OC(F)F)c2[C@H]2C[C@@H]1c1nc3ccc(-c4cnc([C@]5(O)C[C@@](C)(O)C5)nc4)cc3n12 [Comp. Ex #6, reference compound]"
